Experimental data as given in patent US8957071B2, “Treatment of vascular, autoimmune and inflammatory diseases using low dosages of IMPDH inhibitors” (Aspreva Pharmaceuticals S.A., priority 2005, dated 2015).

Experiments:
[1] = Serum mycophenolic acid levels in Ldlr−/− mice by commercial assay; format: in vivo
Procedure: (§1) Diet W will be formulated with CellCept® incorporated directly into the chow, at concentrations of 0.04%, 0.08% or 0.26% mycophenolate mofetil by weight. When administered in this way, the mice will be expected to consume 15 mg/kg/day (“low dose”), 30 mg/kg/day (“low dose”), or 100 mg/kg/day (“high-dose”) of the drug. Mice will be sacrificed 12 weeks after feeding on the study diet, and the endpoints determined.
No MPA was detected in the serum of control mice (data not shown).

[2] = test system: male Ldlr−/− mice; experiment: Atherosclerosis in Ldlr−/− (LDLRKO) mice on Western-type diet: percentage of aortic sinus occluded by plaque; format: in vivo; conditions: 12 weeks; for reduction of atherosclerosis (AS): male Ldlr−/− mice; for percentage of aortic sinus occluded by plaque: control 16%
From the text: (§2) This example illustrates the effect of low-dose MMF on mice lacking the low-density lipoprotein receptor B6.129S7-Ldlrtm1Her/J (hereinafter referred to as LDLRKO mice) obtained from Jackson Labs. When placed on a high-fat, high-cholesterol “Western-type” diet, these mice develop severe atherosclerosis (Ishibashi et al., 1994, J Clin Invest. 93(5):1885-93).
as §1
The primary endpoint will be evaluated using histological analysis of plaque area at the aortic root. The total lesion area in oil red O-stained cryostat sections of the aortic root is quantified using a Leica image analysis system. Mean lesion area (as a percentage of aortic cross-sectional area) is calculated from 10 oil red O-stained sections, beginning at the appearance of the tricuspid valves.
(§3) Plaque composition is analysed as a secondary endpoint using oil red O staining (for lipid content—see above), Movat's pentachrome staining (for lesion complexity including extracellular matrix and glycosaminoglycans), and haematoxylin and eosin (for macrophage content). The average atherosclerotic area is compared between the groups using the two-way ANOVA test. Additional secondary endpoints will be plasma levels of total cholesterol, HDL cholesterol, LDL cholesterol, triglycerides, and glucose, as well as en face visualization of the thoracic and abdominal aortas stained with oil red O.
Low-dose therapy (15 mg/kg/day, a dosage equivalent to approximately 1 gram per day in a 70 kg human) reduced AS by 31% (from 16% to 11% of the sinus) whereas high-dose therapy reduced AS by 61% (from 16% to 6.2%). The response was dose-dependent. Quantification was performed by a single, trained observer blinded to treatment group.

[3] = test system: male New Zealand White (NZW) rabbits; experiment: High-cholesterol New Zealand White rabbit model of atherogenesis (Example 2); format: in vivo; conditions: 1 or 5 mg/kg by gastric gavage daily, 12 weeks
Procedure: This example illustrates the use of low dose MMF in the treatment of a rabbit model of atherogenesis.
Study Design: Studies are done in 30 male New Zealand White (NZW) rabbits weighing 1.0-1.5 kg at the beginning of the experiment. After obtaining baseline blood samples, rabbits are fed ad libitum a 1% cholesterol diet for 12 weeks. This diet is prepared by dissolving cholesterol (Sigma, St. Louis, Mo.) in 100% ethanol at a temperature of 60° C., mixing this solution with standard rabbit chow (Purina), and allowing the complete evaporation of the ethanol.
The rabbits are divided into three groups and treated as follows: (1) CHOL+MMF (extra-low) group (n=10) receives by gastric gavage 5 mg/kg of MMF in 0.4 ml of water; (2) CHOL+MMF (ultra-low) group (n=10) receives by gastric gavage 1 mg/kg of MMF in 0.4 ml of water; and (3) CHOL group (n=10) receives by the same route daily 0.4 ml of water. […] The MMF and vehicle are given daily throughout the 12 experimental weeks.
Blood samples for determination of plasma cholesterol and triglyceride are taken every 2 weeks. […]
Determination of aortic cholesterol content: Lipids are isolated from the aortic segments as described by Folch et al., 1957, J Biol Chem. […]:497-509. […] Cholesterol is determined in the lipid extract by the method of Zlatikis et al., 1953, J Lab Clin Med. 1:486-492. […]

[4] = test system: rabbits; conditions: 30 mg/kg/day; cited from earlier work
[5] = test system: male Ldlr−/− mice; experiment: Serum lipids (triglycerides, phospholipids, HDL) in Ldlr−/− mice on Western-type diet; format: in vivo; conditions: for serum phospholipid (PPL) levels: control 1078+91 mg/dL; for serum triglyceride (Tgs) levels: control 1198+137 mg/dL
From the text: as §2, §1, §3
The response was dose-dependent. Quantification was performed by a single, trained observer blinded to treatment group. Mouse groups are the same as for FIG. 1.
Importantly, levels of serum HDL-cholesterol are not lowered by MMF treatment. Quantification was performed by a single, trained observer blinded to treatment group. Mouse groups are the same as for FIG. 1.

[6] = cited from earlier work
[7] = high-dose (100 mg/kg/day) in chow

| average serum mycophenolic acid (MPA) level ([1]; high-dose group (MMF 100 mg/kg/day in chow)) [mg/L] | average serum mycophenolic acid (MPA) level ([1]; low-dose group (MMF 15 mg/kg/day in chow)) [mg/L] | Compound | reduction of atherosclerosis (AS) [2, 7] [%] | percentage of aortic sinus occluded by plaque [2, 7] [%] | reduction of atherosclerosis (AS) ([2]; low-dose 15 mg/kg/day in chow) [%] | percentage of aortic sinus occluded by plaque ([2]; low-dose 15 mg/kg/day in chow) | size and severity of the atherosclerotic lesion (intima/media ratio, aortic cholesterol content), expected [3] | effect on atherogenic potential of a high-cholesterol diet [4] | serum phospholipid (PPL) levels ([5]; high-dose (100 mg/kg/day)) | serum triglyceride (Tgs) levels ([5]; high-dose (100 mg/kg/day)) | serum phospholipid (PPL) levels ([5]; low-dose 15 mg/kg/day) | serum triglyceride (Tgs) levels ([5]; low-dose 15 mg/kg/day) | effect on HDL levels ([5]; male Ldlr−/− mice, same groups as FIG. 1) | solubility in water [6] |
| --- | --- | --- | --- | --- | --- | --- | --- | --- | --- | --- | --- | --- | --- | --- |
| 3.65 ± 0.3 | 1.16 ± 0.09 | COc1c(C)c2c(c(O)c1C/C=C(\C)CCC(=O)O)C(=O)OC2 [MPA, mycophenolic acid] |  |  |  |  |  |  |  |  |  |  |  |  |
|  |  | COc1c(C)c2c(c(O)c1C/C=C(\C)CCC(=O)OCCN1CCOCC1)C(=O)OC2 [mycophenolate mofetil, morpholinoethyl E-6-(1,3-dihydro-4-hydroxy-6-methoxy-7-methyl-3-oxo-5-isobenzofuranyl)-4-methyl-4-hexenoate] | 61 | 6.2 | 31 | 11 % of the sinus | significantly reduced | ameliorated the atherogenic potential of a high-cholesterol diet | 696+115 mg/dL | 452+80 mg/dL | 964+87 mg/dL | 994+149 mg/dL | does not appear to affect HDL levels | insoluble in water |
